Here are results for nine molecules from article PMC11992225, “Antibacterial compounds against non-growing and intracellular bacteria” (npj Antimicrobials and Resistance, 2025).

pEC50: −log10 of the molar value. ≈ marks a conversion by molar mass, not a printed value. Read-outs that look alike come from different tables or passages of the source.

One test relates to E. coli CFT073 (UPEC). Put plainly: MIC, standard microdilution assay, growing UPEC. The following applies: for MIC (μM) CA-MHB +PAβN: CA-MHB with 10 μg/ml efflux pump inhibitor PaβN. The format is cell-based, Escherichia coli. Put shortly: (§1)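 Each strain was exposed to serially diluted compound in broth, in triplicate. The media were TSB for Shigella; CA-MHB at pH 7.4 (HEPES 40 mM) for S. aureus, P. aeruginosa and UPEC; and, for UPEC only, low-pH LPM (pH 5.5, 30 mM MES).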

Test [1] concerns non-growing P. aeruginosa DSM1117. Put plainly: Dilution-regrowth assay (OD600, start-growth-time) on stationary-phase P. aeruginosa. The format is cell-based, Pseudomonas aeruginosa. As to conditions: Pseudomonas aeruginosa, DSM1117; P. aeruginosa; regrowth delay of non-growing bacteria, 1:4 CA-MHB pH 7.4, 24 h treatment, OD600 8 h after dilution; read-out: EC50. The method, then:
To determine the spectrum of activity of the compounds that were effective against non-growing UPEC, we further assessed their efficacy against the well-characterized Gram-negative and Gram-positive reference strains P. aeruginosa DSM1117 and S. aureus DSM2569, respectively. The cultures were grown and treated for 24 h in 1:4 CA-MHB (pH 7.4). […].
For better characterization of the compounds causing the strongest regrowth delay, we performed the regrowth step of the dilution-regrowth experiments on a plate reader, measuring the OD600 at 20-min intervals for over 20 h instead of using an endpoint measurement. This approach allowed us to capture the time when cultures reached a threshold optical density (start-growth-time, SGT[15]).
Overnight cultures of UPEC, P. aeruginosa and S. aureus were grown in test tubes containing 3 ml of LB broth (~16 h), then diluted 1:100 into either 1:4 diluted CA-MHB medium buffered with 40 mM HEPES (pH 7.4) or, in case of UPEC, into LPM medium[25] supplemented with 49 µM MgCl2 and buffered with 30 mM MES (pH 5.5). The cultures were incubated for 24 h in non-baffled Erlenmeyer flasks at 37 °C with shaking at 200 rpm.
For P. aeruginosa and S. aureus, dose–response analysis was conducted in 96-well plates with a 200 μl assay volume, following the procedure used for screening assay validation experiments. Aliquots of the 39 compounds active against non-growing UPEC were obtained from SelleckChem and MedChem Express. Stock solutions were prepared and stored according to the manufacturers’ instructions, then diluted in 10% DMSO before use. Cultures were incubated for 24 h in 1:4 diluted CA-MHB medium under the same conditions used for UPEC cultivation. In preliminary experiments, each compound was tested at a concentration of 20 μM in the dilution-regrowth assay with 4 technical replicates. Regrowth was monitored using a microplate reader at 37 °C with continuous shaking, and OD600 was recorded every 20 min. The time at which OD600 exceeded the threshold of 0.12 was recorded as the Start_Growth-Time.
The statistical analysis of all data, as well as EC50 and IC50 determination, was conducted using GraphPad Prism 10.2.3. Statistical significance of the drug effects was assessed using a one-way ANOVA followed by Dunnett’s test, comparing each treatment to the drug-free control. Statistical significance of the differences in chemical characteristics between the hit compounds and the Prestwick library was assessed using a Mann–Whitney test. Statistical significance was set at P ≤ 0.05. A five-parameter logistic equation was used for asymmetric sigmoidal curve fitting and for EC50 and IC50 determination. The Venn diagram in Fig. 1F was prepared using BioVenn web application. Characteristics of the chemical and physical properties of Prestwick library compounds were obtained from Supplementary Table S1 from reference. Characteristics of the hit compounds not included in the Prestwick library were retrieved from the PubChem database.

In another test the test system is S. aureus DSM2569. The test can be described thus: MIC, standard microdilution assay, growing S. aureus. The format is cell-based, Staphylococcus aureus. In a few lines: as §1
(Broth dilution looks for growth in wells or tubes with falling amounts of substance.)

For a further test, the system named is P. aeruginosa DSM1117. The test can be described thus: MIC, standard microdilution assay, growing P. aeruginosa. The test is classed as cell-based, Pseudomonas aeruginosa. Put shortly:
as §1

Setting [2] is: Escherichia coli, E. coli, pH 7.4, CA-MHB, read-out: MIC (μM) CA-MHB.
The mark [3] stands for this setting: Staphylococcus aureus, DSM2569, S. aureus, CA-MHB pH 7.4, read-out: MIC (μM) CA-MHB.
Where [4] appears, read: Pseudomonas aeruginosa, DSM1117, P. aeruginosa, 1:4 diluted CA-MHB pH 7.4, read-out: MIC (μM) 1:4 CA-MHB.
[5] abbreviates: Pseudomonas aeruginosa, DSM1117, P. aeruginosa, CA-MHB pH 7.4, read-out: MIC (μM) CA-MHB.
The mark [6] stands for this setting: Escherichia coli, E. coli, LPM pH 5.5, read-out: MIC.
Setting [7] is: E. coli, LPM pH 5.5, read-out: MIC.
[8] abbreviates: E. coli, pH 7.4, CA-MHB, read-out: MIC (μM) CA-MHB.
The mark [9] stands for this setting: S. aureus, CA-MHB pH 7.4, read-out: MIC (μM) CA-MHB.
[10] abbreviates: P. aeruginosa, CA-MHB pH 7.4, read-out: MIC (μM) CA-MHB.

One may read the MIC as the lowest concentration that inhibits growth of the organism. Usually pEC50 stands for −log10 of the EC50, conventionally taken in molar units.

Consider `C[C@@H]1CN(c2c(F)c(N)c3c(=O)c(C(=O)O)cn(C4CC4)c3c2F)C[C@H](C)N1` [Sparfloxacin], for which the MIC with E. coli CFT073 (UPEC) (setting [2]) worked out at 0.025 µM (≈ 0.00981 µg/mL); in the test with S. aureus DSM2569 (setting [3]) it was 0.25 µM (≈ 0.0981 µg/mL); in the test with P. aeruginosa DSM1117 (setting [4]), 2 µM (≈ 0.785 µg/mL); in the test on P. aeruginosa DSM1117 (setting [5]), 2 µM (≈ 0.785 µg/mL). In test [1], the pEC50 was 6.42.

Consider `O=C(O)c1cn(C2CC2)c2cc(N3CCNCC3)c(F)cc2c1=O` [Ciprofloxacin], for which the MIC with E. coli CFT073 (UPEC) (setting [6]) was 0.25 µM (≈ 0.0828 µg/mL); in the test on E. coli CFT073 (UPEC) (setting [2]), 0.125 µM (≈ 0.0414 µg/mL); in the test on S. aureus DSM2569 (setting [3]), 2 µM (≈ 0.663 µg/mL); in the test on P. aeruginosa DSM1117 (setting [4]) it was 2 µM (≈ 0.663 µg/mL); in the test with P. aeruginosa DSM1117 (setting [5]), 2 µM (≈ 0.663 µg/mL). Besides, in test [1], the pEC50 was 6.90.

For Bleomycin, the MIC is listed as 0.5 µM in the test on E. coli CFT073 (UPEC) (setting [7]), 0.5 µM in the test on E. coli CFT073 (UPEC) (setting [8]), 12.5 µM in the test with S. aureus DSM2569 (setting [9]) and more than 100 µM in the test with P. aeruginosa DSM1117 (setting [10]). In addition, the “MIC (μM) 1:4 CA-MHB” value against S. aureus DSM2569 (S. aureus, 1:4 diluted CA-MHB pH 7.4) was 3.125 µM.

In the case of `CO[C@H]1/C=C/O[C@@]2(C)Oc3c(C)c(O)c4c(O)c(c(/C=N/N=C/N5CCCCC5)c(O)c4c3C2=O)NC(=O)/C(C)=C\C=C\[C@H](C)[C@H](O)[C@@H](C)[C@@H](O)[C@@H](C)[C@H](OC(C)=O)[C@@H]1C` [FCE-22250], the MIC in the test on E. coli CFT073 (UPEC) (setting [7]) was 2 µM (≈ 1.67 µg/mL); with E. coli CFT073 (UPEC) (E. coli, pH 7.4, 1:4 diluted CA-MHB, read-out: MIC (μM) 1:4 CA-MHB) it was 10 µM (≈ 8.35 µg/mL); with E. coli CFT073 (UPEC) (setting [8]), 8 µM (≈ 6.68 µg/mL); with S. aureus DSM2569 (setting [9]), 0.0125 µM (≈ 0.0104 µg/mL); in the test with P. aeruginosa DSM1117 (P. aeruginosa, 1:4 diluted CA-MHB pH 7.4, read-out: MIC (μM) 1:4 CA-MHB) it was 10 µM (≈ 8.35 µg/mL); in the test on P. aeruginosa DSM1117 (setting [10]) it was more than 160 µM. Moreover, the “MIC (μM) CA-MHB +PAβN” value in the test on E. coli CFT073 (UPEC) (E. coli, pH 7.4) amounted to 4 µM (≈ 3.34 µg/mL).

On to `CC1COc2c(N3CCN(C)CC3)c(F)cc3c(=O)c(C(=O)O)cn1c23` (stereo not shown) [Ofloxacin], for which the minimum inhibitory concentration (MIC) with E. coli CFT073 (UPEC) (setting [2]) amounted to 0.25 µM (≈ 0.0903 µg/mL); in the test with S. aureus DSM2569 (setting [3]), 2 µM (≈ 0.723 µg/mL); with P. aeruginosa DSM1117 (setting [5]), 8 µM (≈ 2.89 µg/mL).

On to `CO[C@H]1/C=C/O[C@@]2(C)Oc3c(C)c(O)c4c(O)c(c(/C=N/N5CCN(C)CC5)c(O)c4c3C2=O)NC(=O)/C(C)=C\C=C\[C@H](C)[C@H](O)[C@@H](C)[C@@H](O)[C@@H](C)[C@H](OC(C)=O)[C@@H]1C` [Rifampicin], for which the “MIC (μM) CA-MHB +PAβN” value against E. coli CFT073 (UPEC) (E. coli, pH 7.4) was 1 µM (≈ 0.823 µg/mL). For the same molecule, the MIC with E. coli CFT073 (UPEC) (setting [6]) came out at 0.5 µM (≈ 0.411 µg/mL); with E. coli CFT073 (UPEC) (Escherichia coli, E. coli, pH 7.4, 1:4 diluted CA-MHB, read-out: MIC (μM) 1:4 CA-MHB), 5 µM (≈ 4.11 µg/mL); with E. coli CFT073 (UPEC) (setting [2]), 8 µM (≈ 6.58 µg/mL); with S. aureus DSM2569 (setting [3]) it was 0.0125 µM (≈ 0.0103 µg/mL); with P. aeruginosa DSM1117 (setting [5]), 80 µM (≈ 65.8 µg/mL).

On to `CCCCC(CC)CNC(=N)NC(=N)NCCCCCCNC(=N)NC(=N)NCC(CC)CCCC` (stereo not shown) [Alexidine], for which the MIC in the test on E. coli CFT073 (UPEC) (setting [2]) amounted to 2 µM (≈ 1.02 µg/mL); with S. aureus DSM2569 (setting [3]) it was 1 µM (≈ 0.509 µg/mL).

As to `Cn1c(COP(=O)(NCCBr)NCCBr)cnc1[N+](=O)[O-]` [Evofosfamide], the “MIC (μM) CA-MHB +PAβN” value in the test with E. coli CFT073 (UPEC) (E. coli, pH 7.4) is more than 160 µM; against S. aureus DSM2569 (S. aureus, CA-MHB with 10 μg/ml PaβN), 80 µM (≈ 35.9 µg/mL). For the same molecule, the MIC was 160 µM (≈ 71.8 µg/mL) with E. coli CFT073 (UPEC) (Escherichia coli, pH 5.5); more than 160 µM with E. coli CFT073 (UPEC) (Escherichia coli, pH 7.4, read-out: MIC (μM) 1:4 CA-MHB); more than 160 µM in the test with E. coli CFT073 (UPEC) (Escherichia coli, pH 7.4, read-out: MIC (μM) CA-MHB); 80 µM (≈ 35.9 µg/mL) in the test on S. aureus DSM2569 (Staphylococcus aureus, DSM2569, pH 7.4, read-out: MIC (μM) 1:4 CA-MHB); 160 µM (≈ 71.8 µg/mL) in the test on S. aureus DSM2569 (Staphylococcus aureus, DSM2569, pH 7.4, read-out: MIC (μM) CA-MHB); more than 160 µM in the test with P. aeruginosa DSM1117 (Pseudomonas aeruginosa, DSM1117, pH 7.4, read-out: MIC (μM) CA-MHB).

Take `N#Cc1c(N2C[C@@H]3NCCO[C@H]3C2)c(F)cc2c(=O)c(C(=O)O)cn(C3CC3)c12` [Finafloxacin]: the MIC with E. coli CFT073 (UPEC) (setting [7]) came to 0.007812 µM (≈ 0.00311 µg/mL); in the test on E. coli CFT073 (UPEC) (setting [8]), 0.25 µM (≈ 0.0996 µg/mL); in the test with S. aureus DSM2569 (setting [9]) it was 0.5 µM (≈ 0.199 µg/mL); with P. aeruginosa DSM1117 (setting [10]) it was 20 µM (≈ 7.97 µg/mL).
